# From patent publication US7875647B2, “Heteroaryl-pyrazole derivatives as cannabinoid CB1 receptor antagonists” (Green Cross Corporation, priority 2006, dated 2011)
# Biological target: T1, Cannabinoid-1 receptor (CB1R) (Rattus norvegicus, UniProt P20272)
# T1 construct: The tissue obtained from the brain of SD rats was homogenized; from tissue; host or cells: brain of SD rats (membrane pellet of the homogenate)
# Assay: Cannabinoid-1 receptor (CB1R) binding affinity assay ([3H]CP-55940, rat CB-1 receptor binding protocol)
# Conditions: IC50(nM), brain tissue of SD rats, [3H]CP-55940, 30° C. 60 min
# T1 sequence (P20272 whole entry): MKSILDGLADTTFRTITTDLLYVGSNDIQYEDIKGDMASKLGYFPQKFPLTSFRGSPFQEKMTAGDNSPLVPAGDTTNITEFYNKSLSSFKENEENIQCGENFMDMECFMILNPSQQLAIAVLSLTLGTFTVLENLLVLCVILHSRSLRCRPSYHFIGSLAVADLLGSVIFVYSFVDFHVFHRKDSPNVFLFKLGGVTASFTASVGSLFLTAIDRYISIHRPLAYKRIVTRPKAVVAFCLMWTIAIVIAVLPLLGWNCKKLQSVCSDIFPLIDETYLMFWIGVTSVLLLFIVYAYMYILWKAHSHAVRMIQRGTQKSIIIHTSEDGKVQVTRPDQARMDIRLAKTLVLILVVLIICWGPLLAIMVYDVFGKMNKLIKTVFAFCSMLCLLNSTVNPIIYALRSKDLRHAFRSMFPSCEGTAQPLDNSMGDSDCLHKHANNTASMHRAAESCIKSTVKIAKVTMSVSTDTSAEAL
row,SMILES,IC50
1,"CCCCOC(C)(C)c1nnc(-c2nn(-c3ccc(Cl)cc3Cl)c(-c3ccc(Cl)cc3)c2C)o1 [Example 243, 2-(2-butoxypropan-2-yl)-5-(5-(4-chlorophenyl)-1-(2,4-dichlorophenyl)-4-methyl-1H-pyrazol-3-yl)-1,3,4-oxadiazole]",9.78 nM
2,"CC(F)c1c(-c2nnc(C(C)(C)C)s2)nn(-c2ccc(Cl)cc2Cl)c1-c1ccc(Br)cc1 (stereo not shown) [Example 530, 2-(5-(4-bromophenyl)-1-(2,4-dichlorophenyl)-4-(1-fluoroethyl)-1H-pyrazol-3-yl)-5-tert-butyl-1,3,4-thiadiazole]",11.8 nM
3,"COc1ccc(C2(c3nnc(-c4nn(-c5ccc(Cl)cc5Cl)c(-c5ccc(Cl)cc5)c4C)o3)CC2)cc1 [Example 129, 2-(5-(4-chlorophenyl)-1-(2,4-dichlorophenyl)-4-methyl-1H-pyrazol-3-yl)-5-(1-(4-methoxyphenyl)cyclopropyl)-1,3,4-oxadiazole]",9.46 nM

# Same assay, conditions: brain tissue of SD rats, [3H]CP-55940, 30° C. 60 min; read-out: IC50
row,SMILES,IC50
1,"CC(C)(C)c1nnc(-c2nn(-c3ccc(Cl)cc3Cl)c(-c3ccc(Cl)cc3)c2Cn2cnnn2)o1 [Example 301, 2-(4-((1H-tetrazol-1-yl)methyl)-5-(4-chlorophenyl)-1-(2,4-dichlorophenyl)-1H-pyrazol-3-yl)-5-tert-butyl-1,3,4-oxadiazole]",7.64 nM
2,"Cc1c(-c2nnc(C3CCCO3)o2)nn(-c2ccc(Cl)cc2Cl)c1-c1ccc(Cl)cc1 (stereo not shown) [Example 25, 2-(5-(4-Chlorophenyl)-1-(2,4-dichlorophenyl)-4-methyl-1H-pyrazol-3-yl)-5-(tetrahydrofuran-2-yl)-1,3,4-oxadiazole]",60 nM
3,"Cc1ccc(C2(c3nnc(-c4nn(-c5ccc(Cl)cc5Cl)c(-c5ccc(Cl)cc5)c4C)o3)CC2)cc1 [Example 131, 2-(5-(4-chlorophenyl)-1-(2,4-dichlorophenyl)-4-methyl-1H-pyrazol-3-yl)-5-(1-p-tolylcyclopropyl)-1,3,4-oxadiazole]",7.26 nM
4,"Cc1c(-c2nnc(C3(C(C)(C)O)CC3)o2)nn(-c2ccc(Cl)cc2Cl)c1-c1ccc(Cl)cc1 [Example 287, 2-(1-(5-(5-(4-chlorophenyl)-1-(2,4-dichlorophenyl)-4-methyl-1H-pyrazol-3-yl)-1,3,4-oxadiazol-2-yl)cyclopropyl)propan-2-ol]",34.9 nM
5,"Cc1c(-c2nnc(C3(c4ccc(F)cc4)CC3)o2)nn(-c2ccc(Cl)cc2Cl)c1-c1ccc(Cl)cc1 [Example 274, 2-(5-(4-chlorophenyl)-1-(2,4-dichlorophenyl)-4-methyl-1H-pyrazol-3-yl)-5-(1-(4-fluorophenyl)cyclopropyl)-1,3,4-oxadiazole]",12.3 nM
6,"CCc1c(-c2nnc(CC3CCCCC3)o2)nn(-c2ccc(Cl)cc2Cl)c1-c1ccc(Br)cc1 [Example 55, 2-(5-(4-bromophenyl)-1-(2,4-dichlorophenyl)-4-ethyl-1H-pyrazol-3-yl)-5-(cyclohexylmethyl)-1,3,4-oxadiazole]",10.3 nM
7,"Cc1c(-c2nnc(C3(C(F)(F)F)CCC3)o2)nn(-c2ccc(Cl)cc2Cl)c1-c1ccc(Cl)cc1 [Example 135, 2-(5-(4-chlorophenyl)-1-(2,4-dichlorophenyl)-4-methyl-1H-pyrazol-3-yl)-5-(1-(trifluoromethyl)cyclobutyl)-1,3,4-oxadiazole]",16.3 nM
8,"Clc1ccc(-c2c(Cn3cncn3)c(-c3nnc(C4(c5ccc(Cl)cc5)CC4)o3)nn2-c2ccc(Cl)cc2Cl)cc1 [Example 313, 2-(4-((1H-1,2,4-triazol-1-yl)methyl)-5-(4-chlorophenyl)-1-(2,4-dichlorophenyl)-1H-pyrazol-3-yl)-5-(1-(4-chlorophenyl)cyclopropyl)-1,3,4-oxadiazole]",2.21 nM
9,"Cc1c(-c2nnc(C(C)(C)COCc3ccccc3)o2)nn(-c2ccc(Cl)cc2Cl)c1-c1ccc(Cl)cc1 [Example 254, 2-(1-(Benzyloxy)-2-methylpropan-2-yl)-5-(5-(4-chlorophenyl)-1-(2,4-dichlorophenyl)-4-methyl-1H-pyrazol-3-yl)-1,3,4-oxadiazole]",492 nM
10,"C=CCOC(C)(C)c1nnc(-c2nn(-c3ccc(Cl)cc3Cl)c(-c3ccc(Cl)cc3)c2CC)o1 [Example 239, 2-(2-(allyloxy)propan-2-yl)-5-(5-(4-chlorophenyl)-1-(2,4-dichlorophenyl)-4-ethyl-1H-pyrazol-3-yl)-1,3,4-oxadiazole]",4.48 nM
11,"CCc1c(-c2nnc(C3(c4ccc(Cl)cc4)CC3)o2)nn(-c2ccc(Cl)cc2Cl)c1-c1ccc(Cl)cc1 [Example 133, 2-(5-(4-chlorophenyl)-1-(2,4-dichlorophenyl)-4-ethyl-1H-pyrazol-3-yl)-5-(1-(4-chlorophenyl)cyclopropyl)-1,3,4-oxadiazole]",5.47 nM
12,"Clc1ccc(-c2c(Cn3cncn3)c(-c3nnc(C4(c5ccc(Cl)cc5)CCC4)o3)nn2-c2ccc(Cl)cc2Cl)cc1 [Example 322, 2-(4-((1H-1,2,4-triazol-1-yl)methyl)-5-(4-chlorophenyl)-1-(2,4-dichlorophenyl)-1H-pyrazol-3-yl)-5-(1-(4-chlorophenyl)cyclobutyl)-1,3,4-oxadiazole]",3.41 nM
13,"Cc1c(-c2nnc(C(C)(C)OCc3ccccc3F)o2)nn(-c2ccc(Cl)cc2Cl)c1-c1ccc(Cl)cc1 [Example 248, 2-(5-(4-Chlorophenyl)-1-(2,4-dichlorophenyl)-4-methyl-1H-pyrazol-3-yl)-5-(2-(2-fluorobenzyloxy)propan-2-yl)-1,3,4-oxadiazole]",25.1 nM
14,"CC(C)(C)c1nnc(-c2nn(-c3ccc(Cl)cc3Cl)c(-c3ccc(Cl)cc3)c2C(C)(C)O)o1 [Example 217, 2-(3-(5-tert-butyl-1,3,4-oxadiazol-2-yl)-5-(4-chlorophenyl)-1-(2,4-dichlorophenyl)-1H-pyrazol-4-yl)propan-2-ol]",22.6 nM
15,"CCc1c(-c2nnc(C3(c4ccc(C)cc4)CC3)o2)nn(-c2ccc(Cl)cc2Cl)c1-c1ccc(Br)cc1 [Example 176, 2-(5-(4-bromophenyl)-1-(2,4-dichlorophenyl)-4-ethyl-1H-pyrazol-3-yl)-5-(1-p-tolylcyclopropyl)-1,3,4-oxadiazole]",4.47 nM
16,"CCc1c(-c2nnc(C3(C#N)CC3)o2)nn(-c2ccc(Cl)cc2Cl)c1-c1ccc(Br)cc1 [Example 266, 1-(5-(5-(4-bromophenyl)-1-(2,4-dichlorophenyl)-4-ethyl-1H-pyrazol-3-yl)-1,3,4-oxadiazol-2-yl)cyclopropanecarbonitrile]",15.5 nM

# Results, then the molecule that gave them:
row,IC50,SMILES
1,897 nM,"CC(C)(C)c1nnc(-c2nn(-c3ccc(Cl)cc3Cl)c(-c3ccc(Cl)cc3)c2Cc2nnn[nH]2)o1 [Example 330, 2-(4-((1H-tetrazol-5-yl)methyl)-5-(4-chlorophenyl)-1-(2,4-dichlorophenyl)-1H-pyrazol-3-yl)-5-tert-butyl-1,3,4-oxadiazole]"
2,9.18 nM,"CCCC(C)c1nnc(-c2nn(-c3ccc(Cl)cc3Cl)c(-c3ccc(Br)cc3)c2CC)s1 (stereo not shown) [Example 414, 2-(5-(4-bromophenyl)-1-(2,4-dichlorophenyl)-4-ethyl-1H-pyrazol-3-yl)-5-(pentan-2-yl)-1,3,4-thiadiazole]"
3,93.9 nM,"Cc1c(-c2ncc(C3CCCCC3)o2)nn(-c2ccc(Cl)cc2Cl)c1-c1ccc(Cl)cc1 [Example 638, 2-(5-(4-chlorophenyl)-1-(2,4-dichlorophenyl)-4-methyl-1H-pyrazol-3-yl)-5-cyclohexyloxazole]"
4,42.3 nM,"Cc1c(-c2nnnn2C2CCC2)nn(-c2ccc(Cl)cc2Cl)c1-c1ccc(Cl)cc1 [Example 600, 5-(5-(4-Chlorophenyl)-1-(2,4-dichlorophenyl)-4-methyl-1H-pyrazol-3-yl)-1-cyclobutyl-1H-tetrazole]"
5,128 nM,"Cc1c(-c2n[nH]c(C3CC3)n2)nn(-c2ccc(Cl)cc2Cl)c1-c1ccc(Cl)cc1 [Example 619, 3-(5-(4-chlorophenyl)-1-(2,4-dichlorophenyl)-4-methyl-1H-pyrazol-3-yl)-5-cyclopropyl-1H-1,2,4-triazole]"
6,102 nM,"CCC(C)c1nnc(-c2nn(-c3ccc(Cl)cc3Cl)c(-c3ccc(Cl)cc3)c2Cl)s1 (stereo not shown) [Example 539, 2-sec-butyl-5-(4-chloro-5-(4-chlorophenyl)-1-(2,4-dichlorophenyl)-1H-pyrazol-3-yl)-1,3,4-thiadiazole]"
7,102 nM,"Cc1c(-c2nnc(CC(F)(F)F)s2)nn(-c2ccc(Cl)cc2Cl)c1-c1ccc(Cl)cc1 [Example 466, 2-(5-(4-chlorophenyl)-1-(2,4-dichlorophenyl)-4-methyl-1H-pyrazol-3-yl)-5-(2,2,2-trifluoroethyl)-1,3,4-thiadiazole]"
8,6.49 nM,"CCc1c(-c2nnc(C3(c4ccc(Cl)cc4Cl)CC3)s2)nn(-c2ccc(Cl)cc2Cl)c1-c1ccc(Br)cc1 [Example 478, 2-(5-(4-bromophenyl)-1-(2,4-dichlorophenyl)-4-ethyl-1H-pyrazol-3-yl)-5-(1-(2,4-dichlorophenyl)cyclopropyl)-1,3,4-thiadiazole]"
9,523 nM,"CCCc1nc(-c2nn(-c3ccc(Cl)cc3Cl)c(-c3ccc(Cl)cc3)c2C)n[nH]1 [Example 617, 3-(5-(4-chlorophenyl)-1-(2,4-dichlorophenyl)-4-methyl-1H-pyrazol-3-yl)-5-propyl-1H-1,2,4-triazole]"
10,26 nM,"Cc1c(-c2nnc(Cc3ccccc3)s2)nn(-c2ccc(Cl)cc2Cl)c1-c1ccc(Cl)cc1 [Example 354, 2-benzyl-5-(5-(4-chlorophenyl)-1-(2,4-dichlorophenyl)-4-methyl-1H-pyrazol-3-yl)-1,3,4-thiadiazole]"
11,19.8 nM,"CCc1c(-c2nnc(C3(CC)CC3)s2)nn(-c2ccc(Cl)cc2Cl)c1-c1ccc(Br)cc1 [Example 490, 2-(5-(4-bromophenyl)-1-(2,4-dichlorophenyl)-4-ethyl-1H-pyrazol-3-yl)-5-(1-ethylcyclopropyl)-1,3,4-thiadiazole]"
12,2.07 nM,"COc1ccc(C2(c3nnc(-c4nn(-c5ccc(Cl)cc5Cl)c(-c5ccc(Cl)cc5)c4Cn4cncn4)s3)CC2)cc1 [Example 509, 2-(4-((1H-1,2,4-triazol-1-yl)methyl)-5-(4-chlorophenyl)-1-(2,4-dichlorophenyl)-1H-pyrazol-3-yl)-5-(1-(4-methoxyphenyl)cyclopropyl)-1,3,4-thiadiazole]"
